Experimental data published in patent US20260098037A1, “COMPOUND CONTAINING MULTI-FUSED RING STRUCTURE” (Chia Tai Tianqing Pharmaceutical Group Co., Ltd., priority 2023, published 2026).
Read-outs that look alike come from different tables or passages of the source.

Legend:
[1] = molecular target: GLP1R (Homo sapiens, UniProt P43220); experiment: In vitro cellular cAMP expression activity assay (CRE-luciferase reporter); type: cell-based; details: HEK293/CRE-Luc/GLP1R cells, 6 h incubation, luciferase luminescence; read-out: HEK293/CRE-Luc/GLP-1R EC50
Sequence of GLP1R (P43220 24-463): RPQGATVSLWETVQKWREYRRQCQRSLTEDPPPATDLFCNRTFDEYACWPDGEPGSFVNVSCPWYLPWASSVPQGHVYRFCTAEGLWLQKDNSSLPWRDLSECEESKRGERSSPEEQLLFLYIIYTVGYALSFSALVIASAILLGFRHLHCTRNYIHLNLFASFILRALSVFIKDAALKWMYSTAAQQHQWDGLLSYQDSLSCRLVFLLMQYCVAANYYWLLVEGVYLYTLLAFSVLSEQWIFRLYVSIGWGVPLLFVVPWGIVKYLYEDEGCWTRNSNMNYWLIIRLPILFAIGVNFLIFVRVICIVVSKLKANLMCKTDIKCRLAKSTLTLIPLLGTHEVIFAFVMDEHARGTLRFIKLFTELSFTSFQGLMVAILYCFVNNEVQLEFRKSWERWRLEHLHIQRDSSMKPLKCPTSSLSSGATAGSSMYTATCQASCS
Experimental: HEK293/CRE-Luc/GLP1R cells (manufacturer: GenScript Biotech Corporation) in a good growth state were taken, washed with PBS, and digested with pancreatin. The digestion was terminated with a complete medium. The cells were collected into a centrifuge tube, adjusted to a cell density of 4×10^5 cells/mL using a DMEM+2% FBS medium, seeded in a 96-well plate (100 μL/well), and incubated at 37° C. for 1 h. After 1 h, the compounds were added using a nanoliter pipettor such that the final concentrations of the compounds were 10 nM-0.0006 nM. The compounds were added in duplicate, and a control was set. After the cells were incubated in a cell incubator for another 6 h, a detection reagent Luciferase (manufacturer: Vazyme Biotech, 50 μL/well) was added. The plate was left to stand at room temperature for 3 min to fully lyse the cells, and the luminescence was detected on a PerkinElmer Envision microplate reader. A dose-response curve was fitted by four-parameter analysis, and the EC50 was calculated.

[2] = In vitro stability assay in liver microsome (HLM); type: in vitro ADME, human; details: liver microsome 0.5 mg/mL, NADPH+MgCl2, PBS pH 7.4, 1 h
Experimental: (§1) Liver microsome incubation samples were prepared by mixing a PBS buffer (pH 7.4), a liver microsome solution (0.5 mg/mL), a test compound, and an NADPH+MgCl2 solution, and incubated at […] and 300 rpm for 1 h. Zero-hour samples were prepared by mixing a PBS buffer (pH 7.4), a liver microsome solution (0.5 mg/mL), and a test compound. An acetonitrile solution containing an internal standard was added to the samples, and supernatants were prepared by protein precipitation, diluted, and then assayed by LC/MS/MS.

[3] = In vitro stability assay in liver microsome (MLM); type: in vitro ADME, mouse; details: liver microsome 0.5 mg/mL, NADPH+MgCl2, PBS pH 7.4, 1 h
Experimental: as §1

[4] = In vivo pharmacokinetic evaluation in mice; details: mouse, plasma, ICR mice; for bioavailability: ig 3 mg/kg vs iv 0.5 mg/kg, read-out: Absolute bioavailability F; for MRT last: read-out: MRT(0-24); for half-life: read-out: t½ (converted); for AUC(0-t): read-out: AUC(0-24)
Experimental: ICR mice of 18-22 g were randomized into 4 groups of 9 mice after 3-5 days of acclimatization. […]
The test animals (ICR mice) were fasted from 12 h pre-dose to 4 h post-dose, and given free access to water throughout the study.
Orbital blood samples of about 0.1 mL were collected at 15 min, 30 min, 1 h, 2 h, 3 h, 4 h, 6 h, 8 h, 10 h, and 24 h post-dose for the intragastric administration, and at 5 min, 10 min, 30 min, 1 h, 2 h, 4 h, 6 h, 8 h, 10 h, and 24 h post-dose for the intravenous administration. The blood sampling was performed at 3-4 time points for each mouse, 3 mice per time point. The collected whole blood was transferred into EDTA-K2-containing centrifuge tubes and stored at 4° C., and, within 1 h, centrifuged at 4° C. at 4000 rpm for 10 min to separate the plasma. All the plasma samples were immediately stored after collection at −20° C. for testing.
30 μL of the plasma sample to be tested and a standard curve sample were pipetted and added with 300 μL of an acetonitrile solution containing an internal standard (20 ng/mL of diazepam). The mixture was shaken to mix well for 5 min, and centrifuged at 13,000 rpm for 10 min. 80 μL of the supernatant was taken and diluted with 80 μL of ultrapure water. After a thorough mixing, 2 μL of the resulting sample was taken for liquid chromatography-mass spectrometry, and the chromatogram was recorded.

Row | Structure (SMILES) | EC50 [1] [nM] | HLM Remaining (T = 60 min) [2] [%] | MLM Remaining (T = 60 min) [3] [%] | also measured
1 | Cc1cc(-n2nc3c(c2-n2ccn(-c4ccc5c(c4)C4(CC4)C(=O)N5C)c2=O)C(C)N(C(=O)c2cc4cc(C5CCOC(C)(C)C5)ccn4c2C2(c4noc(=O)[nH]4)CC2C)CC3)cc(C)c1F (single isomer, unassigned) [Compound 22-A] | < 0.5 |  |  | 
2 | C[C@H]1c2c(nn(-c3ccc(F)c(C4CC4)c3)c2-n2ccn(-c3ccc4c(c3)N(C)C(=O)C43CC3)c2=O)CCN1C(=O)c1cc2cc(C3CCOC(C)(C)C3)ccc2n1C1(c2noc(=O)[nH]2)CC1 (single isomer, unassigned) [Compound 20] | < 0.5 | 95.39 | 77.59 | 
3 | COCC#Cc1ccc(-n2ccn(-c3c4c(nn3-c3cc(C)c(F)c(C)c3)CCN(C(=O)c3cc5cc([C@H]6CCOC(C)(C)C6)ccc5n3[C@@]3(c5noc(=O)[nH]5)C[C@@H]3C)[C@H]4C)c2=O)c(F)c1 [Compound 10-A] | < 0.5 |  |  | 
4 | Cc1cc(-n2nc3c(c2-n2ccn(-c4ccc5c(c4)CC4(COC4)C5)c2=O)[C@H](C)N(C(=O)c2cc4cc([C@H]5CCOC(C)(C)C5)ccc4n2[C@@]2(c4noc(=O)[nH]4)C[C@@H]2C)CC3)cc(C)c1F [Compound 12-A] | < 0.5 |  |  | 
5 | Cc1cc(-n2nc3c(c2-n2ccn(-c4ccc5c(c4)C(=O)C4(CC4)C5)c2=O)[C@H](C)N(C(=O)c2cc4cc([C@H]5CCOC(C)(C)C5)ccc4n2[C@@]2(c4noc(=O)[nH]4)C[C@@H]2C)CC3)cc(C)c1F [Compound 9-A] | < 0.5 |  |  | 
6 | [2H]C([2H])([2H])N1C(=O)C2(CC2)c2ccc(-n3ccn(-c4c5c(nn4-c4cc(C)c(F)c(C)c4)CCN(C(=O)c4cc6cc([C@H]7CCOC(C)(C)C7)ccc6n4[C@@]4(c6noc(=O)[nH]6)C[C@@H]4C)[C@H]5C)c3=O)cc21 [Compound 13] | < 0.5 | 84.57 | 84.44 | 
7 | Cc1cc(-n2nc3c(c2-n2ccn(-c4ccc5c(c4)C4(CC4)C(=O)N5C)c2=O)[C@H](C)N(C(=O)c2cc4cc([C@H]5CCOC(C)(C)C5)ccc4n2[C@@]2(c4noc(=O)[nH]4)C[C@@H]2C)CC3)cc(C)c1F [Compound 1-A] | < 0.5 |  |  | 
8 | [2H]C([2H])([2H])N1C(=O)C2(CC2)c2cc(-n3ccn(-c4c5c(nn4-c4cc(C)c(F)c(C)c4)CCN(C(=O)c4cc6cc([C@H]7CCOC(C)(C)C7)ccc6n4[C@@]4(c6noc(=O)[nH]6)C[C@@H]4C)[C@H]5C)c3=O)ccc21 [Compound 2] | < 0.5 | 88.76 | 88.89 | bioavailability ([4]; po): 43.9%; MRT last ([4]; po, ig, dose 3 mg/kg): 7.73 h; half-life ([4]; po, ig, dose 3 mg/kg): 3.53 h; MRT last ([4]; iv, dose 0.5 mg/kg): 5.13 h; half-life ([4]; iv, dose 0.5 mg/kg): 4.1 h; AUC(0-inf) ([4]; po, ig, dose 3 mg/kg): 4880 ng·h/mL; AUC(0-t) ([4]; po, ig, dose 3 mg/kg): 4790 ng·h/mL; AUC(0-inf) ([4]; iv, dose 0.5 mg/kg): 1850 ng·h/mL; AUC(0-t) ([4]; iv, dose 0.5 mg/kg): 1820 ng·h/mL
9 | C[C@H]1c2c(nn(-c3ccc(F)c(C4CC4)c3)c2-n2ccn(-c3ccc4c(c3)C3(CC3)C(=O)N4C)c2=O)CCN1C(=O)c1cc2cc(C3CCOC(C)(C)C3)ccc2n1[C@@]1(c2nc(=O)o[nH]2)C[C@@H]1C (single isomer, unassigned) [Compound 6] | < 0.5 |  |  | 
10 | Cc1cc(-n2nc3c(c2-n2ccn(-c4ccc5nc6n(c5c4)CCN(C)C6)c2=O)[C@H](C)N(C(=O)c2cc4cc([C@H]5CCOC(C)(C)C5)ccc4n2[C@@]2(c4noc(=O)[nH]4)C[C@@H]2C)CC3)cc(C)c1F [Compound 7] | < 0.5 |  |  | 
11 | Cc1cc(-n2nc3c(c2-n2ccn(-c4ccc5c(c4)C4(CCC4)C(=O)N5C)c2=O)[C@H](C)N(C(=O)c2cc4cc(C5CCOC(C)(C)C5)ccc4n2[C@@]2(c4nc(=O)o[nH]4)C[C@@H]2C)CC3)cc(C)c1F (single isomer, unassigned) [Compound 21] | < 0.5 |  |  | 
12 | Cc1cc(-n2nc3c(c2-n2ccn(-c4ccc5c(c4)N(C4CC4)C(=O)C54CC4)c2=O)[C@H](C)N(C(=O)c2cc4cc([C@H]5CCOC(C)(C)C5)ccc4n2[C@@]2(c4noc(=O)[nH]4)C[C@@H]2C)CC3)cc(C)c1F [Compound 17] | < 0.5 |  |  | 
13 | Cc1cc(-n2nc3c(c2-n2ccn(-c4ccc5c(c4)C4(CC4)C(=O)N5C4CC4)c2=O)[C@H](C)N(C(=O)c2cc4cc([C@H]5CCOC(C)(C)C5)ccc4n2[C@@]2(c4noc(=O)[nH]4)C[C@@H]2C)CC3)cc(C)c1F [Compound 3] | < 0.5 | 80.83 | 90.13 | bioavailability ([4]; po): 33.7%; MRT last ([4]; po, ig, dose 3 mg/kg): 8.42 h; half-life ([4]; po, ig, dose 3 mg/kg): 4.15 h; MRT last ([4]; iv, dose 0.5 mg/kg): 6.13 h; half-life ([4]; iv, dose 0.5 mg/kg): 5.73 h; AUC(0-inf) ([4]; po, ig, dose 3 mg/kg): 4960 ng·h/mL; AUC(0-t) ([4]; po, ig, dose 3 mg/kg): 4800 ng·h/mL; AUC(0-inf) ([4]; iv, dose 0.5 mg/kg): 2450 ng·h/mL; AUC(0-t) ([4]; iv, dose 0.5 mg/kg): 2360 ng·h/mL
14 | Cc1cc(-n2nc3c(c2-n2ccn(-c4ccc5c(c4)C4(CC4)C(=O)N5C)c2=O)[C@H](C)N(C(=O)c2cc4cc([C@H]5CCOC(C)(C)C5)ccc4n2C2(c4noc(=O)[nH]4)CC2)CC3)cc(C)c1F [Compound 4] | < 0.5 | 91.85 | 95.46 | 
15 | C[C@H]1c2c(nn(-c3ccc(F)c(C4CC4)c3)c2-n2ccn(-c3ccc4c(c3)C3(CC3)C(=O)N4C)c2=O)CCN1C(=O)c1cc2cc([C@H]3CCOC(C)(C)C3)ccn2c1[C@@]1(c2noc(=O)[nH]2)C[C@@H]1C [Compound 24] | < 0.5 |  |  | 
16 | Cc1cc(-n2nc3c(c2-n2ccn(-c4ccc5nc6n(c5c4)CCC6)c2=O)[C@H](C)N(C(=O)c2cc4cc([C@H]5CCOC(C)(C)C5)ccc4n2[C@@]2(c4noc(=O)[nH]4)C[C@@H]2C)CC3)cc(C)c1F [Compound 8] | < 0.5 |  |  | 
17 | Cc1cc(-n2nc3c(c2-n2ccn(-c4ccc5c(c4)N(C)C(=O)C54CC4)c2=O)[C@H](C)N(C(=O)c2cc4cc([C@H]5CCOC(C)(C)C5)ccc4n2C2(c4noc(=O)[nH]4)CC2)CC3)cc(C)c1F [Compound 19] | < 0.5 | 92.40 | 77.17 | 
18 | Cc1cc(-n2nc3c(c2-n2ccn(-c4cc(F)c5c(c4)N(C)C(=O)C54CC4)c2=O)[C@H](C)N(C(=O)c2cc4cc([C@H]5CCOC(C)(C)C5)ccc4n2[C@@]2(c4noc(=O)[nH]4)C[C@@H]2C)CC3)cc(C)c1F [Compound 16] | < 0.5 |  |  | 
19 | C[C@H]1c2c(nn(-c3ccc(F)c(C4CC4)c3)c2-n2ccn(-c3ccc4c(c3)N(C)C(=O)C43CC3)c2=O)CCN1C(=O)c1cc2cc([C@H]3CCOC(C)(C)C3)ccc2n1[C@@]1(c2noc(=O)[nH]2)C[C@@H]1C [Compound 18] | < 0.5 | 89.14 | 91.41 | bioavailability ([4]; po): 33.5%; MRT last ([4]; po, ig, dose 3 mg/kg): 8.36 h; half-life ([4]; po, ig, dose 3 mg/kg): 4.29 h; MRT last ([4]; iv, dose 0.5 mg/kg): 5.48 h; half-life ([4]; iv, dose 0.5 mg/kg): 4.55 h; AUC(0-inf) ([4]; po, ig, dose 3 mg/kg): 6030 ng·h/mL; AUC(0-t) ([4]; po, ig, dose 3 mg/kg): 5840 ng·h/mL; AUC(0-inf) ([4]; iv, dose 0.5 mg/kg): 3000 ng·h/mL; AUC(0-t) ([4]; iv, dose 0.5 mg/kg): 2930 ng·h/mL
20 | C[C@H]1c2c(nn(-c3ccc(F)c(C4CC4)c3)c2-n2ccn(-c3ccc4c(c3)CC3(CC3)C4=O)c2=O)CCN1C(=O)c1cc2cc([C@H]3CCOC(C)(C)C3)ccc2n1[C@@]1(c2noc(=O)[nH]2)C[C@@H]1C [Compound 26] | < 0.5 |  |  | 
